Experiments:
Assay in all cases: relative viability (nuclei count vs DMSO), 5 days (fraction); higher = more cells survive
Dabrafenib + Olaparib = compound: CC(C)(C)c1nc(-c2cccc(NS(=O)(=O)c3c(F)cccc3F)c2F)c(-c2ccnc(N)n2)s1 [Dabrafenib] + O=C(c1cc(Cc2n[nH]c(=O)c3ccccc23)ccc1F)N1CCN(C(=O)C2CC2)CC1 [Olaparib] (partner 8 µM)
Method in brief: (§1)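 Lung cancer cell lines were seeded in 1536-well plates and dosed by pin tool the next day, with either a single drug or a fixed anchor-drug dose combined with five library-drug doses (not always all listed) spaced in √10 steps. Five days later, one step fixed the cells and stained their nuclei (final 0.05% Triton X-100, 1% formaldehyde, 1 ug/ml Hoechst), and nuclei were counted on 4× images. Relative viability is the nuclei count in treated wells divided by the count in vehicle wells, and each value is the median of duplicate plates.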

VX-702 + Trametinib = compound: NC(=O)c1ccc(N(C(N)=O)c2c(F)cccc2F)nc1-c1ccc(F)cc1F [VX-702] + CC(=O)Nc1cccc(-n2c(=O)n(C3CC3)c(=O)c3c(Nc4ccc(I)cc4F)n(C)c(=O)c(C)c32)c1 [Trametinib] (partner 0.02 µM)
Method in brief: as §1

VX-702 + OSI-027 = compound: NC(=O)c1ccc(N(C(N)=O)c2c(F)cccc2F)nc1-c1ccc(F)cc1F [VX-702] + COc1cccc2cc(-c3nc([C@H]4CC[C@H](C(=O)O)CC4)n4ncnc(N)c34)[nH]c12 [OSI-027] (partner 0.5 µM)
Method in brief: as §1

VX-702 + Crizotinib = compound: NC(=O)c1ccc(N(C(N)=O)c2c(F)cccc2F)nc1-c1ccc(F)cc1F [VX-702] + C[C@@H](Oc1cc(-c2cnn(C3CCNCC3)c2)cnc1N)c1c(Cl)ccc(F)c1Cl [Crizotinib] (partner 1 µM)
Method in brief: as §1

Cell Line	relative viability (Dabrafenib + Olaparib; first compound 0.003 µM)	relative viability (Dabrafenib + Olaparib; first compound 0.009487 µM)	relative viability (Dabrafenib + Olaparib; first compound 0.03 µM)	relative viability (Dabrafenib + Olaparib; first compound 0.09487 µM)	relative viability (Dabrafenib + Olaparib; first compound 0.3 µM)	relative viability (VX-702 + Trametinib; first compound 0.02 µM)	relative viability (VX-702 + Trametinib; first compound 0.2 µM)	relative viability (VX-702 + Trametinib; first compound 0.6325 µM)	relative viability (VX-702 + Trametinib; first compound 2 µM)	relative viability (VX-702 + OSI-027; first compound 0.02 µM)	relative viability (VX-702 + OSI-027; first compound 0.2 µM)	relative viability (VX-702 + OSI-027; first compound 0.6325 µM)	relative viability (VX-702 + OSI-027; first compound 2 µM)	relative viability (VX-702 + Crizotinib; first compound 0.02 µM)	relative viability (VX-702 + Crizotinib; first compound 0.2 µM)	relative viability (VX-702 + Crizotinib; first compound 0.6325 µM)	relative viability (VX-702 + Crizotinib; first compound 2 µM)
EPLC-272H	0.784	0.931	0.717	0.749	0.964	0.296	0.279	0.279	0.273	0.298	0.304	0.279	0.248	0.968	0.773	0.983	1.16
H3255	0.632	0.568	0.626	0.573	0.595	0.488		0.581	0.662	0.666	0.684	0.541	0.63	0.774	1.09	0.855	0.86
HARA		0.971	0.799	0.647	1.12	0.818		0.776	0.63	0.458	0.412	0.446	0.479	1.1	0.982	1.07	1.13
HCC-15	0.716	0.673	0.743	0.578	0.63	0.345	0.364	0.322	0.294	0.659	0.661	0.69	0.702	0.873	0.834	0.759	0.848
HCC-44	0.952	1.03	1.08	1	0.956	1.11	1.06	1.05	1.1	0.48	0.433	0.491	0.485	0.802	0.739	0.817	0.971
HCC-78		0.847	0.733	0.452	0.915	0.53	0.861	0.741	0.801	0.364	0.358	0.311	0.32	0.348	0.327	0.321	0.341
HCC-366	0.381	0.337	0.271	0.329	0.39	0.341	0.314	0.269	0.266	1.09	0.899	0.932	0.107	0.588	0.396	0.525	0.601
HCC-827	0.65	0.79	0.62		0.671	0.55	0.501	0.515	0.425	0.828	0.839	0.688	0.273	0.922	0.9	0.869	0.906
HOP-62		0.297	0.388		0.386	0.419	0.397	0.469	0.45	0.88	0.859	0.831	0.982	0.946	0.651	0.549	0.915
LC-2-ad	0.69	0.668	0.709	0.647	0.698	0.948	0.916	0.921	0.97	0.844	0.814	0.999	0.949	0.502		0.449	0.504
LCLC-97TM1		0.317	0.472	0.262	0.35	0.197	0.192	0.185	0.202	0.424	0.595	0.37	0.404	0.285	0.342	0.421	0.558
LCLC-103H	0.716	0.733	0.687	0.801	0.747	0.723	0.743	0.665	0.711	0.49	0.485	0.417	0.458	1.04	0.973	1.13	1.07
LK-2	0.737	0.706		0.498	0.796	0.591	0.696	0.568	0.788	0.21	0.211	0.167	0.183	0.258		0.223	0.23
LOU-NH91		0.923	0.918	0.889	0.969	0.828	0.763	0.768	0.743	0.767	0.734	0.751	0.528	0.711	0.741	0.786	0.659
LU99A	0.296	0.278	0.257	0.236	0.272	0.563	0.532	0.512	0.5	0.339	0.323	0.312	0.283	0.61	0.467	0.475	0.437
LXF-289	1.1	1.12	1.07	0.892	1.07	0.718	0.648	0.691	0.703	0.786	0.784	0.772	0.683	0.924	0.802	0.874	0.864
NCI-H23		0.312	0.3	0.292	0.329	0.4	0.411	0.392	0.413	0.604	0.643	0.688	0.559	0.524	0.523	0.678	0.756
NCI-H322M		0.8		0.745	0.736	0.543	0.499	0.518	0.613	0.567	0.517	0.566	0.62	1.04	0.861	1.01	1.08
NCI-H358	0.647	0.697	0.546	0.538	0.406	0.147	0.143	0.126	0.143	0.867	0.845	0.711	0.794	0.659	0.549	0.542	0.681
NCI-H441		0.609	0.609	0.334	0.588	0.349	0.386	0.351	0.538	0.564	0.547	0.5	0.544	0.715	0.707	0.711	0.838

— the supplement of paper PMC10307832
